Data as given in ChEMBL document CHEMBL1130818, “High affinity, selective neurokinin 2 and neurokinin 3 receptor antagonists from a common structural template” (Bioorg Med Chem Lett, 1998).

Columns and labels:
Substance-P receptor = Substance-P receptor (Homo sapiens, UniProt P25103); test: Compound was evaluated for affinity towards human Neurokinin NK1 receptor
Neuromedin-K receptor = target: T1, Neuromedin-K receptor (Homo sapiens, UniProt P29371); test: Compound was evaluated for affinity towards human Neurokinin NK3 receptor
T1 sequence (P29371 whole entry): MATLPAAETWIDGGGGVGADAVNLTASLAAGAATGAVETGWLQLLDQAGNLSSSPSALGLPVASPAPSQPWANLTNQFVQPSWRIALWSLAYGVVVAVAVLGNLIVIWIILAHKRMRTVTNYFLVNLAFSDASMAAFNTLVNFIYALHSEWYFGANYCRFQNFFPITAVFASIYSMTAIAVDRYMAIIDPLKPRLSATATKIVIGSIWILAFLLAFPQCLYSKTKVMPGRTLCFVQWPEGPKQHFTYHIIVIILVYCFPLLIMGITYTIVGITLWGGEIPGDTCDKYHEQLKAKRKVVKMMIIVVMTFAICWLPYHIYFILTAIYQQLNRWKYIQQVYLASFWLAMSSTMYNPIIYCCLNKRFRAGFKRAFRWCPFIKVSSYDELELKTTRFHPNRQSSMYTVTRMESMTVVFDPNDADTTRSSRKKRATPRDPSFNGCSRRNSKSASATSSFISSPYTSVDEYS

Substance-K receptor = target: T2, Substance-K receptor (Homo sapiens, UniProt P21452); test: Compound was evaluated for affinity towards human Neurokinin NK2 receptor
T2 sequence (P21452 whole entry): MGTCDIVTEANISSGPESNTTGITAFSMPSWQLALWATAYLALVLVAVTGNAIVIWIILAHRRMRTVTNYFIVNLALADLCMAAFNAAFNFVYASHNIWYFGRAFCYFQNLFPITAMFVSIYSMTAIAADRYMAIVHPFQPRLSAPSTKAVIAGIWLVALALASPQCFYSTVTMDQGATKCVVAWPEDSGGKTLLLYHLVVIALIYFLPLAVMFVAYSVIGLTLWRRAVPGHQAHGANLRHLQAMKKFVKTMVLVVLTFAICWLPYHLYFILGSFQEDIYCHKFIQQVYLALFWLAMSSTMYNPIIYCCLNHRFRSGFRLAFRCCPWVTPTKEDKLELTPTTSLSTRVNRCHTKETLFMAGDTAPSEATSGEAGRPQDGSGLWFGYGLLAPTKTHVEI

Sequence of Substance-P receptor (P25103 whole entry): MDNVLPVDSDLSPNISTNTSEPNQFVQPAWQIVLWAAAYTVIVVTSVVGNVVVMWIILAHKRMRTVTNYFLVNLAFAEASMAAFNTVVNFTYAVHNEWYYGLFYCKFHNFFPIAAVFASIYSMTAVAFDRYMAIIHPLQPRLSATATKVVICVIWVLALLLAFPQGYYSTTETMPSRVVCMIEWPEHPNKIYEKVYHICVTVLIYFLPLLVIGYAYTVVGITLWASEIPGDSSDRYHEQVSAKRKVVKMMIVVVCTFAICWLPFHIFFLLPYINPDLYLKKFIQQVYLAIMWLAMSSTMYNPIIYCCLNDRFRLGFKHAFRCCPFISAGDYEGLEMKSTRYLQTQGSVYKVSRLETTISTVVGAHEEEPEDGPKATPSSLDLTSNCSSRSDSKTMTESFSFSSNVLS

Row | Structure (SMILES) | IC50 (Substance-P receptor) [nM] | IC50 (Neuromedin-K receptor) [nM] | IC50 (Substance-K receptor) [nM]
1 | CS(=O)(=O)N1CC2(CCN(CCCC3(c4ccc(Cl)c(Cl)c4)CCCN(C(=O)c4ccccc4)C3)CC2)c2ccccc21 (configuration not stated) | 497 | 1.2 | 177
2 | CC(=O)C1(c2ccccc2)CCN(CCCC2(c3ccc(Cl)c(Cl)c3)CCC(=O)N(Cc3ccccc3)C2)CC1 (configuration not stated) | 1030 | 19 | 3.9
3 | O=C(c1ccccc1)N1CCCC(CCCN2CCC(n3c(=O)[nH]c4ccccc43)CC2)(c2ccc(Cl)c(Cl)c2)C1 (configuration not stated) | 379 | 7.9 | 348
4 | O=C(c1ccccc1)N1CCCC(CCCN2CCC3(CCc4ccccc43)CC2)(c2ccc(Cl)c(Cl)c2)C1 (configuration not stated) | 272 | 2.6 | 204
5 | O=C1CCC(CCCN2CCC3(CC2)CN(c2ccccc2)NC3=O)(c2ccc(Cl)c(Cl)c2)CN1Cc1ccccc1 (configuration not stated) | 892 | 127 | 2.5
6 | CC(=O)C1(c2ccccc2)CCN(CCCC2(c3ccc(Cl)c(Cl)c3)CCCN(C(=O)c3ccccc3)C2)CC1 (configuration not stated) | 460 | 1.5 | 389

Other lines, results leading:

Row | IC50 (Substance-P receptor) [nM] | IC50 (Neuromedin-K receptor) [nM] | IC50 (Substance-K receptor) [nM] | Structure (SMILES)
7 | 763 | 25 | 2.2 | CS(=O)(=O)N1CC2(CCN(CCCC3(c4ccc(Cl)c(Cl)c4)CCC(=O)N(Cc4ccccc4)C3)CC2)c2ccccc21 (configuration not stated)
8 | 743 | 539 | 6.4 | O=C1CCC(CCCN2CCC(n3c(=O)[nH]c4ccccc43)CC2)(c2ccc(Cl)c(Cl)c2)CN1Cc1ccccc1 (configuration not stated)
9 | 108 | 6.8 | 50 | O=C(c1ccccc1)N1CCCC(CCCN2CCC3(CC2)CN(c2ccccc2)NC3=O)(c2ccc(Cl)c(Cl)c2)C1 (configuration not stated)
